Patent US7528168B2, “Inhibitors of the fatty acid oxidation for the prophylaxis and/or the treatment of chronic and/or atopic skin diseases” (priority 2002, dated 2009)

Legend:
[1] = Animal experiment, deaths during topical treatment; assay type: in vivo, BNX mice; details: 30% Etomoxir cream left on the skin; probably because they licked off the cream
Procedure: The psoriasis model described by Wrone-Smith and Nickoloff (1996) was used. 5 mm non-lesional skin biopsies from five psoriatic patients were each split in four pieces and transplanted on 20 immuno-deficient BNX mice, i.e. four groups of five mice each. Psoriasis was induced in all mice by injection with donors super-antigen-activated blood cells. After psoriasis had developed, mice were treated for 3 weeks by applying either placebo-cream, cream containing a corticosteroid (betamethasone), 1% Etomoxir or 30% Etomoxir daily on the skin. […]

[2] = test system: CPT1; assay: CPT1 activity in total blood cells of BNX mice after three weeks topical treatment; assay type: in vivo; details: 3 weeks
Procedure: (§1) The psoriasis model described by Wrone-Smith and Nickoloff (1996) was used. 5 mm non-lesional skin biopsies from five psoriatic patients were each split in four pieces and transplanted on 20 immuno-deficient BNX mice, i.e. four groups of five mice each. Psoriasis was induced in all mice by injection with donors super-antigen-activated blood cells. After psoriasis had developed, mice were treated for 3 weeks by applying either placebo-cream, cream containing a corticosteroid (betamethasone), 1% Etomoxir or 30% Etomoxir daily on the skin. The cream containing 30% Etomoxir was removed after 30 minutes while the other creams were left on the skin.
After the treatment period, liver and blood of the mice were analyzed for their CPT1 activity and GOT/GPT levels. Furthermore, the epidermal thickness, in particular the depth of reti ridges, the number of Ki67 positive cells and the percentage of ULEX-positive cells (this marker stains the upper layers of the epidermis in normal skin and the whole epidermis in psoriatic skin) in the epidermis were determined. […]
160 μl of bidestilled water was added to wells of a 96-well plate. […] After 5 to 30 min OD at 595 was measured versus reagent blank (0 μg BSA). For the calibration curve the OD was plotted against the concentration of BSA and total protein concentration of the liver samples was calculated in μg/μl. […]

[3] = test system: transplanted human psoriasis skin; assay: Psoriasis model, Ki-67 staining (keratinocyte proliferation); assay type: in vivo, BNX mice; details: 3 weeks
Procedure: as §1
(§2) After the treatment period, liver and blood of the mice were analyzed for their CPT1 activity and GOT/GPT levels. Furthermore, the epidermal thickness, in particular the depth of reti ridges, the number of Ki67 positive cells and the percentage of ULEX-positive cells (this marker stains the upper layers of the epidermis in normal skin and the whole epidermis in psoriatic skin) in the epidermis were determined.
(§3) Histological stainings are performed on cryo-preserved tissues. Diagonal cross sections (8μm) are cut (see FIG. 20), covering all skin-layers (located at the top layer are the stratum corneus and epidermis of the transplanted human biopsy and at the bottom the murine tissue is located, forming a base for the transplanted human skin).
Sections are stained with mu-∝Hu monoclonal Ab and evaluated at a microscopic magnification of 400×. Two representative sections are evaluated. The total number of positive cells are counted of the total section and indicated per unit-length. A unit-length is a microscopic view (of a part of the section) at a magnification of 400× (see FIG. 20). Per section several unit-lengths are counted (minimum of 8). From this the average number of Ki-67 positive cells per unit-length is calculated.

[4] = target: T1, CPT1 (Mus musculus, UniProt P97742); assay: CPT1 activity in liver of BNX mice after three weeks topical treatment; assay type: in vivo; details: 3 weeks, placebo set 100%
T1 construct: A small piece of frozen liver (appr. 200 mg) was homogenized in 600 μl of cold sucrose buffer; from tissue; host or cells: liver of BNX mice (mitochondrial enriched fraction)
T1 sequence (P97742 1-773): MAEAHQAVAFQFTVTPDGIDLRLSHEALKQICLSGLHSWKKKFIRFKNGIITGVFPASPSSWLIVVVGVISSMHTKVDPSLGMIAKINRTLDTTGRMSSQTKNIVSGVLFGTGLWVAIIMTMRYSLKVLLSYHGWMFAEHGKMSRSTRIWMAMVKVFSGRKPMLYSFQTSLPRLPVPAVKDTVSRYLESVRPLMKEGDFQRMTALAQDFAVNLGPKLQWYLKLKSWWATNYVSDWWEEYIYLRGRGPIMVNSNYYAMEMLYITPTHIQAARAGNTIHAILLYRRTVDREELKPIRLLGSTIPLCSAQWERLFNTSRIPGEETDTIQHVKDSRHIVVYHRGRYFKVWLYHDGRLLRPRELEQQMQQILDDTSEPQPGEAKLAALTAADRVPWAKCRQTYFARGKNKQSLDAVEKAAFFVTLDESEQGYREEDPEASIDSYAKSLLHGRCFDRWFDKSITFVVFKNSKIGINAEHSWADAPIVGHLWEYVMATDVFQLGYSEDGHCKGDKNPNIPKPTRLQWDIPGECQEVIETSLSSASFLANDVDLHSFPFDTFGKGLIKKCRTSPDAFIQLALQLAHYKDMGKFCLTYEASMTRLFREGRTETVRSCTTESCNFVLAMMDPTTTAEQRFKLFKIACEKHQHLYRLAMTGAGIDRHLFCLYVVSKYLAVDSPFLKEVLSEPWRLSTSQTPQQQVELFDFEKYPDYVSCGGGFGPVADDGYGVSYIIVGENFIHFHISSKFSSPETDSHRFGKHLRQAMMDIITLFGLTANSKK
Procedure: as §1, §2
(§4) A small piece of frozen liver (appr. 200 mg) was homogenized in 600 μl of cold sucrose buffer by 8-10 strokes with tight pestle of dounce homogenizer. Homogenate was centrifuged at 700×g for 10 min at 4° C. Supernatant was again centrifuged at 20000×g for 20 min at 4° C. Pellet was resuspended in 1400 μl buffer A and kept on ice for further analysis or stored at −80° C.
160 μl of bidestilled water was added to wells of a 96-well plate. For the standard curve 0 μg, 1 μg, 2 μg, 3 μg, 4 μg and 5 μg of BSA (BSA stock: 1 mg/ml from New England Biolabs) was added in duplicates to the first […]. 1 μl of the liver samples and the blood samples were added in duplicates to the wells. Finally 40 μl dye reagent concentrate (Bio-Rad protein assay) was added and mixed by pipetting up and down. After 5 to 30 min OD at 595 was measured versus reagent blank (0 μg BSA). For the calibration curve the OD was plotted against the concentration of BSA and total protein concentration of the liver samples was calculated in μg/μl.
20 μg of total protein of each liver sample and 300 μg of total protein of each plasma sample were added in 1.5 ml Eppendorf tubes (safe lock) and filled up to 100 μl with buffer A (all in duplicates). Background control was buffer A only. The tubes were preincubated for exactly 5 min at 30° C. prior to the addition of 105 μl of reaction mix. Again samples were incubated for exactly 5 min at 30° C. Reactions were stopped by adding 800 μl of 6% perchloric acid and stored on ice. […] Finally, either 100 μl (liver samples) or 150 μl (plasma samples) of the butanol phase were mixed with 1 ml Microscint0 in a 24 well-plate and cpm values were measured with the scintillation counter from Canberra Packard. […]

[5] = test system: transplanted human psoriasis skin; assay: Psoriasis model, ULEX staining (keratinocyte differentiation); assay type: in vivo, BNX mice; details: 3 weeks, placebo 55±19%
Procedure: as §1, §2, §3
Sections are stained with biotinylated Europaeus Agglutinin 1 and evaluated at a microscopic magnification of 200×. Two representative sections are evaluated. The thickness of both the ULEX positive cell-layer (distribution of ULEX) as well as the ULEX negative layer of the total section is measured using a microscopic ocular with intergraded graduation-lines (ruler). From this the average ratio of ULEX positive differentiation is calculated (indicated as percentage of epidermis positive for ULUX).

[6] = test system: transplanted human psoriasis skin; assay: Psoriasis model, hematoxyline staining (epidermal thickness); assay type: in vivo, BNX mice; details: 3 weeks, placebo 138±24 μm; for Epidermal thickness: three mice
Procedure: as §1, §2, §3
Sections are stained with hematoxyline and evaluated at a microscopic magnification of 200×. Two sections taken round the middle of the biopsy are evaluated. Thickness measurements are performed of the total section using a microscopic ocular with intergraded graduation-lines (ruler). From this, the average epidermal thickness measurements for ridges and the average of the total epidermis (mean of ridges and inter-ridges) are calculated in μm (taken into account magnification factor).

[7] = test system: CPT1; assay: Inhibition of CPT1 activity by the salt of Etomoxir in vitro, pooled blood cell extract; assay type: biochemical, BNX mice
Procedure: 500 μl of total blood cells were frozen and drawn three tines to break up the cells. Samples were diluted by adding 500 μl buffer A and then centrifuged at 20000×g for 20 min at 4° C. Solid Pellets were resuspended in 200 μl buffer A and kept on ice for further analysis or stored at −80° C.
(§5) 2 μl of a 100× stock of Etomoxir-salt (0; 0.1; 1.0 and 10 mM) dissolved in DMSO were added in 1.5 ml Eppendorf tubes in duplicates. 2× activation mix was premixed on ice with either 15 μg of total protein of each liver sample or 300 μg of total protein of each plasma sample (final volume per reaction was 98 μl). 98 μl of this mix was added to each tube containing the 2 μl of inhibitor and tubes were left at 30° C. for exactly 30 min. Then 105 μl of reaction mix were added to start the CPT1 reaction. Again samples were incubated for exactly 5 min at 30° C. […] Finally, either 150 μl of the butanol phase were mixed with 1 ml Microscint0 in a 24 well-plate and cpm values were measured with the scintillation counter from Canberra Packard. P values were calculated with the t-test of the SigmaPlot 2001 software.
(§6) To determine the sensitivity of the CPT1 activity in response to Etomoxir, cell pellet samples were pooled and treated with increasing amounts of Etomoxir. […] 85% of the measured activity in the blood cells was Etomoxir insensitive and therefore the relevance of this assay is questionable.

[8] = target: T1, CPT1; assay: Inhibition of CPT1 activity by the salt of Etomoxir in vitro, mitochondrial enriched fractions of liver; assay type: biochemical, BNX mice
Procedure: as §4
as §5, with “min.” for “min. Then 105 μl of reaction mix were added to start the CPT1 reaction. Again samples were incubated for exactly 5 min at 30° C.”
as §6

CCOC(=O)C1(CCCCCCOc2ccc(Cl)cc2)CO1 (stereo not shown) [Etomoxir, 2-(6-(4-chlorophenoxy)hexyl)oxirane-2-carboxylic acid ethyl ester]
Deaths of animals [1]: two out of five animals died | CPT1 activity in blood cell pellets versus placebo group ([2]; 1% Etomoxir cream daily, p value 0.01): significantly higher | CPT1 activity in blood cell pellets versus placebo group ([2]; 30% Etomoxir cream daily, p value>0.05): not significantly different | Number of Ki67 positive cells as compared to the placebo group ([3]; 1% Etomoxir cream): significant decrease | Number of Ki67 positive cells as compared to the placebo group ([3]; 30% Etomoxir cream): significant decrease | CPT1 activity in liver compared to the placebo group ([4]; 1% Etomoxir cream daily): 73% | CPT1 activity in liver compared to the placebo group ([4]; 30% Etomoxir cream daily, excluding liver of dead animals): 59% | CPT1 activity in liver compared to the placebo group ([4]; 30% Etomoxir cream daily, including the two dead animals): 40% | Percentage of ULEX-positive cells in the epidermis (differentiation rate) ([5]; 1% Etomoxir cream): 17±11% | Percentage of ULEX-positive cells in the epidermis (differentiation rate) ([5]; 30% Etomoxir cream): 18±8% | Epidermal thickness ([6]; 1% Etomoxir cream daily): 88±10 μm | Epidermal thickness ([6]; 30% Etomoxir cream daily (removed after 30 minutes)): 69±4 μm | Reduction of CPT1 activity in pooled blood cell pellet samples ([7]; increasing amounts of Etomoxir (salt), activity without Etomoxir = 100%): ~15% | Part of the measured CPT1 activity in blood cells that is Etomoxir insensitive ([7]; pooled cell pellet samples): ~85% | Sensitivity of CPT1 activity measured in liver to Etomoxir [8]: highly Etomoxir sensitive

C[C@H]1C[C@H]2[C@@H]3CCC4=CC(=O)C=C[C@]4(C)[C@@]3(F)[C@@H](O)C[C@]2(C)[C@@]1(O)C(=O)CO [corticosteroid, betamethasone]
Number of Ki67 positive cells ([3]; corticosteroid cream daily, placebo 55±37): 10±6 positive cells/unit-length | CPT1 activity in liver compared to the placebo group ([4]; corticosteroid (betamethasone) cream daily): 83% | Percentage of ULEX-positive cells in the epidermis ([5]; corticosteroid cream daily): 24±7% | Average epidermal thickness ([6]; corticosteroid cream daily): 81±9 μm
